Data from PubChem BioAssay (NCI).
Several values for one entry are separate records, joined by “and”; a condition that tells them apart may be missing. Equal entries are not always repeated.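 Tested at 5 concentrations; 48 h exposure; 96-well plates; endpoints linearly interpolated, else capped at highest concentration. Abbreviation: GI50, concentration required for 50% inhibition of growth. TGI marks complete inhibition of growth.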

Legend:
Assay in all cases: inhibition of tumour cell growth, NCI panel, 48 h
HS 578T breast = system: HS 578T breast
HOP-92 NSCLC = system: HOP-92 NSCLC
NCI/ADR-RES ovarian = system: NCI/ADR-RES ovarian
IGROV1 ovarian = system: IGROV1 ovarian
SF-268 CNS = system: SF-268 CNS
SK-MEL-5 melanoma = system: SK-MEL-5 melanoma
RPMI-8226 leukemia = system: RPMI-8226 leukemia
K-562 leukemia = system: K-562 leukemia
SF-539 CNS = system: SF-539 CNS
CCRF-CEM leukemia = system: CCRF-CEM leukemia
NCI-H522 lung = system: NCI-H522 lung

CCCC(=O)O[C@H]1C=C2C[C@@]34SS[C@]5(CC6=C[C@H](OC(C)=O)[C@@H]7O[C@@H]7[C@H]6N5C3=O)C(=O)N4[C@@H]2[C@H]2O[C@H]21
TGI (HS 578T breast): 18.6 µM | TGI (HOP-92 NSCLC): 0.0941 µM | TGI (NCI/ADR-RES ovarian): 0.442 µM | TGI (IGROV1 ovarian): 0.0499 µM | TGI (SF-268 CNS): 0.119 µM | TGI (SK-MEL-5 melanoma): 0.655 µM | TGI (RPMI-8226 leukemia): 2.29 µM | TGI (K-562 leukemia): 5.83 µM | TGI (SF-539 CNS): 0.932 µM | TGI (CCRF-CEM leukemia): 8.41 µM

O=C(N/N=C/c1ccc([N+](=O)[O-])o1)c1ccc(C(=O)N/N=C/c2ccc([N+](=O)[O-])o2)cc1
TGI (HS 578T breast): > 100 µM | TGI (HOP-92 NSCLC): > 100 µM | TGI (NCI/ADR-RES ovarian): > 100 µM | TGI (IGROV1 ovarian): > 100 µM | TGI (SF-268 CNS): > 100 µM | TGI (SK-MEL-5 melanoma): 55.6 µM | TGI (RPMI-8226 leukemia): 26.1 µM | TGI (K-562 leukemia): > 100 µM | TGI (SF-539 CNS): 38.3 µM | TGI (CCRF-CEM leukemia): 42.4 µM | TGI (NCI-H522 lung): > 100 µM

Cc1cc(N=Nc2c(O)ccc3ccccc23)ccc1N=Nc1cccc([N+](C)(C)C)c1
TGI (HS 578T breast): 47 µM | TGI (HOP-92 NSCLC): > 100 µM | TGI (NCI/ADR-RES ovarian): > 100 µM | TGI (IGROV1 ovarian): > 22.2 µM | TGI (SF-268 CNS): 57.1 µM | TGI (SK-MEL-5 melanoma): > 23.7 µM | TGI (RPMI-8226 leukemia): > 46.5 µM | TGI (K-562 leukemia): > 90.7 µM | TGI (SF-539 CNS): 22.3 µM | TGI (CCRF-CEM leukemia): > 34.3 µM | TGI (NCI-H522 lung): > 26.1 µM

CC(=O)NNc1nc(C)c(C(/C=C/c2ccc([N+](=O)[O-])cc2)=N/NC(N)=S)s1
TGI (HS 578T breast): > 100 µM | TGI (HOP-92 NSCLC): > 100 µM | TGI (NCI/ADR-RES ovarian): > 100 µM | TGI (IGROV1 ovarian): > 100 µM | TGI (SF-268 CNS): > 100 µM | TGI (SK-MEL-5 melanoma): > 100 µM | TGI (RPMI-8226 leukemia): > 100 µM | TGI (SF-539 CNS): > 100 µM | TGI (CCRF-CEM leukemia): > 100 µM | TGI (NCI-H522 lung): > 100 µM

Cn1c(-c2cccs2)cc(-c2cccs2)c1-c1ccco1
TGI (HS 578T breast): > 91.7 µM | TGI (HOP-92 NSCLC): > 100 µM | TGI (NCI/ADR-RES ovarian): > 100 µM | TGI (IGROV1 ovarian): > 100 µM | TGI (SF-268 CNS): > 100 µM | TGI (SK-MEL-5 melanoma): > 100 µM | TGI (RPMI-8226 leukemia): > 100 µM | TGI (K-562 leukemia): > 100 µM | TGI (SF-539 CNS): > 100 µM | TGI (CCRF-CEM leukemia): > 100 µM | TGI (NCI-H522 lung): 88.2 µM

CCN(CC)CCN1C(=O)c2c(c(-c3ccccc3)c3ccccc3c2-c2ccccc2)C1=O
TGI (HS 578T breast): > 100 µM | TGI (HOP-92 NSCLC): 86.9 µM | TGI (NCI/ADR-RES ovarian): > 100 µM | TGI (IGROV1 ovarian): > 100 µM | TGI (SF-268 CNS): > 100 µM | TGI (SK-MEL-5 melanoma): > 100 µM | TGI (RPMI-8226 leukemia): > 100 µM | TGI (K-562 leukemia): > 100 µM | TGI (SF-539 CNS): > 100 µM | TGI (CCRF-CEM leukemia): > 100 µM | TGI (NCI-H522 lung): > 100 µM

COc1cc(C2SC(N)=Nc3c2c(C)nn3C(=O)c2ccccc2O)ccc1O (stereo not given)
TGI (HS 578T breast): > 10 µM | TGI (HOP-92 NSCLC): > 10 µM | TGI (NCI/ADR-RES ovarian): > 10 µM | TGI (IGROV1 ovarian): > 3.33 µM | TGI (SF-268 CNS): > 10 µM | TGI (SK-MEL-5 melanoma): > 10 µM | TGI (RPMI-8226 leukemia): > 7.78 µM | TGI (K-562 leukemia): > 3.75 µM | TGI (SF-539 CNS): > 2.31 µM | TGI (CCRF-CEM leukemia): > 10 µM | TGI (NCI-H522 lung): > 10 µM

O=C1O[C@H]2[C@H](O)[C@@H](OC(=O)c3cc(O)c(O)c4c3[C@@H]3C1=CC(=O)C(O)(O)C3(O)O4)[C@H](OC(=O)c1cc(O)c(O)c(O)c1)O[C@@H]2CO (stereo not given in full)
TGI (HS 578T breast): > 100 µM | TGI (HOP-92 NSCLC): > 100 µM | TGI (NCI/ADR-RES ovarian): > 100 µM | TGI (IGROV1 ovarian): > 100 µM | TGI (SF-268 CNS): > 100 µM | TGI (SK-MEL-5 melanoma): > 100 µM | TGI (RPMI-8226 leukemia): > 100 µM | TGI (K-562 leukemia): > 100 µM | TGI (CCRF-CEM leukemia): 46.1 µM | TGI (NCI-H522 lung): > 100 µM

CC(=O)Oc1cc2c(c3ncccc13)OC(C)(C)C2
TGI (HS 578T breast): 24.9 µM | TGI (HOP-92 NSCLC): 27.1 µM | TGI (NCI/ADR-RES ovarian): 23.9 µM | TGI (IGROV1 ovarian): 12.4 µM | TGI (SF-268 CNS): 25.9 µM | TGI (SK-MEL-5 melanoma): 25.4 µM | TGI (RPMI-8226 leukemia): > 100 µM | TGI (K-562 leukemia): 23.4 µM | TGI (SF-539 CNS): 26.9 µM | TGI (CCRF-CEM leukemia): 28.7 µM | TGI (NCI-H522 lung): 8.26 µM

O=C1N2CCc3c([nH]c4ccccc34)C23CC2CCCCC12S3 (stereo not given)
TGI (HS 578T breast): > 100 µM | TGI (HOP-92 NSCLC): > 100 µM | TGI (NCI/ADR-RES ovarian): > 100 µM | TGI (IGROV1 ovarian): > 100 µM | TGI (SF-268 CNS): > 100 µM | TGI (SK-MEL-5 melanoma): > 100 µM | TGI (RPMI-8226 leukemia): > 100 µM | TGI (K-562 leukemia): > 100 µM | TGI (SF-539 CNS): > 100 µM | TGI (NCI-H522 lung): > 100 µM

Cc1ccc2c(c1)C(=O)N1CCC[C@H]1C=N2
TGI (HS 578T breast): 31.5 µM | TGI (HOP-92 NSCLC): > 86.9 µM | TGI (NCI/ADR-RES ovarian): > 64 µM | TGI (IGROV1 ovarian): > 66.3 µM | TGI (SF-268 CNS): > 100 µM | TGI (SK-MEL-5 melanoma): 26.7 µM | TGI (RPMI-8226 leukemia): > 53.3 µM | TGI (K-562 leukemia): > 100 µM | TGI (SF-539 CNS): 37.3 µM | TGI (CCRF-CEM leukemia): 22.6 µM | TGI (NCI-H522 lung): 22.5 µM

c1ccc(P(CCP(c2ccccn2)c2ccccn2)c2ccccc2)cc1
TGI (HS 578T breast): > 100 µM | TGI (HOP-92 NSCLC): > 69.9 µM | TGI (NCI/ADR-RES ovarian): > 100 µM | TGI (SK-MEL-5 melanoma): > 100 µM | TGI (RPMI-8226 leukemia): 40.6 µM | TGI (K-562 leukemia): > 100 µM | TGI (SF-539 CNS): > 100 µM

O=C1CC(=O)NC(=NN2C(=O)/C(=C/c3ccccc3)N=C2c2ccccc2)N1
TGI (HS 578T breast): > 100 µM | TGI (HOP-92 NSCLC): > 100 µM | TGI (NCI/ADR-RES ovarian): > 100 µM | TGI (IGROV1 ovarian): > 100 µM | TGI (SF-268 CNS): > 100 µM | TGI (SK-MEL-5 melanoma): > 100 µM | TGI (RPMI-8226 leukemia): > 100 µM | TGI (K-562 leukemia): > 100 µM | TGI (SF-539 CNS): > 100 µM | TGI (CCRF-CEM leukemia): > 100 µM | TGI (NCI-H522 lung): > 100 µM

COc1cc(/C=C2/SC(c3ccccc3)N(c3ccccc3)C2=O)cc(OC)c1OC (stereo not given)
TGI (HS 578T breast): > 100 µM | TGI (HOP-92 NSCLC): > 100 µM | TGI (NCI/ADR-RES ovarian): > 100 µM | TGI (SF-268 CNS): > 100 µM | TGI (SK-MEL-5 melanoma): > 100 µM | TGI (RPMI-8226 leukemia): 66.6 µM | TGI (K-562 leukemia): > 100 µM | TGI (SF-539 CNS): > 100 µM | TGI (CCRF-CEM leukemia): 42.2 µM | TGI (NCI-H522 lung): > 100 µM

CCN(CC)CCNC(=O)c1ccc(I)cc1
TGI (HS 578T breast): > 100 µM | TGI (HOP-92 NSCLC): > 100 µM | TGI (NCI/ADR-RES ovarian): > 100 µM | TGI (IGROV1 ovarian): > 100 µM | TGI (SF-268 CNS): > 100 µM | TGI (SK-MEL-5 melanoma): > 100 µM | TGI (RPMI-8226 leukemia): > 100 µM | TGI (K-562 leukemia): > 100 µM | TGI (SF-539 CNS): > 100 µM | TGI (CCRF-CEM leukemia): > 100 µM | TGI (NCI-H522 lung): > 100 µM

Cc1cc(S(=O)(=O)/N=C(\[N-]S(=O)(=O)c2ccc(Cl)cc2)[n+]2ccc(N(C)C)cc2)c(S)cc1Cl
TGI (HS 578T breast): > 100 µM | TGI (NCI/ADR-RES ovarian): > 100 µM | TGI (IGROV1 ovarian): > 100 µM | TGI (SF-268 CNS): > 100 µM | TGI (SK-MEL-5 melanoma): > 100 µM | TGI (RPMI-8226 leukemia): > 100 µM | TGI (K-562 leukemia): > 100 µM | TGI (SF-539 CNS): > 100 µM | TGI (CCRF-CEM leukemia): > 100 µM | TGI (NCI-H522 lung): > 100 µM

C/C=C1/CN2CCC3(O)c4ccccc4N4C=C(C(=O)OC)C1CC2C43O (stereo not given)
TGI (HS 578T breast): > 100 µM | TGI (HOP-92 NSCLC): > 100 µM | TGI (NCI/ADR-RES ovarian): > 100 µM | TGI (IGROV1 ovarian): > 100 µM | TGI (SF-268 CNS): > 100 µM | TGI (SK-MEL-5 melanoma): > 100 µM | TGI (RPMI-8226 leukemia): > 100 µM | TGI (K-562 leukemia): > 100 µM | TGI (SF-539 CNS): > 100 µM | TGI (CCRF-CEM leukemia): > 100 µM | TGI (NCI-H522 lung): > 100 µM

COC1C(O)C(C)OC(OC2C(Oc3cccc4c(O)c5c(=O)oc6ccc(C)c7c(=O)oc(c34)c5c67)OC(C)C(O)C2O)C1O (stereo not given)
TGI (HS 578T breast): 20.4 µM | GI50 (HOP-92 NSCLC): 2.43 µM | GI50 (NCI/ADR-RES ovarian): 26.1 µM | TGI (NCI/ADR-RES ovarian): 117 µM | GI50 (IGROV1 ovarian): 3.08 µM | TGI (IGROV1 ovarian): > 69.9 µM and 12.9 µM | GI50 (SF-268 CNS): 1.01 µM | TGI (SF-268 CNS): 11.1 µM and 12.6 µM | GI50 (SK-MEL-5 melanoma): 1.91 µM | TGI (SK-MEL-5 melanoma): 6.38 µM and 4.19 µM | GI50 (RPMI-8226 leukemia): 1.25 µM | TGI (RPMI-8226 leukemia): 15.9 µM and 6.88 µM | TGI (K-562 leukemia): 19.3 µM and 8.81 µM | GI50 (SF-539 CNS): 1.19 µM | TGI (SF-539 CNS): 5.52 µM and 5.55 µM | TGI (CCRF-CEM leukemia): 14.4 µM and 5.06 µM | GI50 (NCI-H522 lung): 0.747 µM | TGI (NCI-H522 lung): 2.74 µM and 3.67 µM
